We go through 11 molecules from US9459246B2, “Induced intercellular communication” (Nodality, Inc., priority 2009, dated 2016).

Where “and” joins values, the source holds several entries; their conditions need not be identical. Identical values can stand only once.

The subject of assay [1] is AML cells. The assay can be described thus: SCNP of basal and growth-factor modulated signaling in AML patient sample with kinase inhibitors (Example 17, Arm #1). Format: cell-based, human. The conditions noted are these: patient #1910-017. An excerpt:
This study used peripheral blood or bone marrow samples (n=9), which had been previously ficoll separated and cryopreserved. Patient characteristics are shown Table 8. One cryovial per patient was used. Samples were thawed and centrifuged over ficoll to remove dead cells and debris.
Samples were split to perform the following: Arm #1 assessed basal and modulated signaling in the JAK/STAT, PI3K/mTor, and MEK/ERK pathways in the presence and absence of specific kinase inhibitors. Kinase inhibitors were added 1 hr before the addition of the signaling stimulus. Signaling was induced by individual addition of stem cell factor, Flt3 ligand, G-CSF, IL-3, or thrombopoietin (TPO) for a short period of time (5-15 min). Cells were then fixed, permeabilized, and stained with a cocktail of cell surface and phospho-specific antibodies to measure signaling in multiple cell types. Signaling data is calculated in each cell type using a fold-change metric comparing each condition to its basal state: example: (stimulated^+/−inhibitor)/(unstimulated). Also, cells with an apoptotic phenotype were excluded from the signaling analysis by gating.

Assay [2] concerns AML cells. The experiment in a line: Cytotoxic and cytostatic impact of drugs on cultured AML patient cells (Example 17, Arm #2). Format: cell-based, human. The conditions noted are these: patient #1910-017, 48 hours.
Method: This study used peripheral blood or bone marrow samples (n=9), which had been previously ficoll separated and cryopreserved. […] One cryovial per patient was used. Samples were thawed and centrifuged over ficoll to remove dead cells and debris. […] After 2 days the cells were then distributed into wells containing various drugs, wherein the cells were cultured for 48 hours. The cultures were fixed, permeabilized, and stained with a cocktail of antibodies to measure complete cell death, apoptosis, S/G2 phase, M-Phase, and DNA damage. These readouts were also obstained from samples cultured separately with individual growth factors (no drugs) for 4 days.
Assay [3] concerns PBMCs. The format is cell-based, human. The conditions noted are these: PBMC, 24 hours.
Assay [4] concerns PBMCs. The assay can be described thus: SCNP intracellular signaling readouts in PBMCs treated 24 hours with modulator (SAg or LPS) plus inhibitor (Example 9, FIGS. 18-21). Format: cell-based, human.
Assay [5] deals with peripheral blood mononuclear cells (PBMC). The assay can be described thus: SCNP assay of SAg-modulated PBMC signaling over time, with or without cytokine pathway inhibitors (Examples 10, 11, 13). Format: cell-based, human.
Another assay deals with monocytes in PBMC. The experiment in a line: Flow cytometry of intracellular cytokines in SAg-modulated PBMC with inhibitors (Example 12). The format is cell-based, human.
The subject of assay [6] is PBMCs.
Assay [7] concerns PBMCs. The assay can be described thus: SCNP signaling in LPS-treated PBMCs with inhibitors (Example 14, FIGS. 22, 23). The conditions noted are these: LPS plus inhibitor.
In the next assay the test system is whole blood. The assay can be described thus: SCNP of cytokine-induced JAK/STAT signaling in whole blood of healthy donors (Example 4). The format is cell-based, human. As for the experimental part: Method: Whole blood from 11 healthy donors (20-65 yrs, 7 males, 4 females, 8 Caucasians, 2 Hispanics, 1 East Asian) was stimulated at 37° C. in 96-well plates with a low, medium, and high dose of GM-CSF, IFN-α, IL-27 and IL-6, each added separately, as described in Example 5. For each dose, a stimulation time course was run with 6 time points between 3 and 45 minutes. […] The SCNP assay was performed using a fluorophore-labeled antibody cocktail to simultaneously measure signaling in six distinct cell populations, including: neutrophils, CD20+ B cells, CD3+CD4+T cells, CD3+CD4− T cells (CD8 enriched), CD3-CD20-lymphocytes (NK cell enriched), and CD14+ monocytes. The median fluorescent intensity of phospho (p)-STAT1(Y701), p-STAT3(Y705), and p-STAT5(Y694) were measured in each defined cell population for each experimental condition.

Assay [8] deals with PBMCs. The assay can be described thus: SCNP of IFN-α signaling in PBMCs from healthy donors (Examples 5 and 15). Format: cell-based, human. How it is done:
(§1) Methods: IFN-α-mediated signaling responses were measured by SCNP in PBMC samples from 12 healthy donors. PBMCs were processed for flow cytometry by fixation and permeabilization followed by incubation with fluorochrome-conjugated antibodies that recognize extracellular lineage markers and intracellular signaling molecules. The levels of several phospho-proteins (p-Stat1, p-Stat3, p-Stat4, p-Stat5, p-Stat6, and p-p38) were measured in multiple cell populations (CD14+ monocytes, CD20+ B cells, CD4+ CD3+ T cells, and CD4− CD3+ T cells) at 15 minutes, 1, 2 and 4 hours post IFN-α exposure as described in Example 6.
as §1, with “IFN-α-mediated” for “Methods: IFN-α-mediated”

Assay [9] relates to PBMCs. The experiment in a line: SCNP of immunomodulator signaling nodes in PBMC subpopulations of 60 healthy donors (Example 16). The conditions noted are these: 15 min. Format: cell-based, human.
Method: Cryopreserved PBMC samples were thawed at 37° C. and resuspended in RPMI 1% FBS before staining with amine aqua viability dye (Invitrogen, Carlsbad, Calif.). Cells were resuspended in RPMI 10% FBS, aliquoted to 100,000 cells per well of 96-well plates, and rested for 2 h at 37° C. prior to 15 min 37° C. incubation with the following modulators: 1000 IU/ml IFNα (PBL, Piscataqay, N.J.); 250 ng/ml IFNγ, 50 ng/ml IL4, 50 ng/ml IL10, α-IgD 5 m/ml (BD, San Jose, Calif.); 50 ng/ml IL2, 50 ng/ml IL6, 50 ng/ml IL27, CD40L 0.5 μg/ml (R&D, Minneapolis, Minn.); R848 5 μg/ml (Invivogen, San Diego, Calif.); LPS 1 μg/ml, PMA 40 nM (Sigma Aldrich, St. Louis, Mo.). After exposure to modulators, cells were fixed with paraformaldehyde and permeabilized with 100% ice-cold methanol as previously described (5). […]
Flow cytometry data was acquired using FACS DIVA software (BD, San Jose, Calif.) on two LSRII Flow Cytometers (BD, San Jose, Calif.). All flow cytometry data were analyzed with WinList (Verity House Software, Topsham, Me.). […]
Two different metrics are utilized in this study to measure the levels of intracellular signaling proteins in either the unmodulated state or in response to modulation. […] The Equivalent Number of Reference Fluorophores (ERFs), fluorescence measurements calibrated by rainbow calibration particles on each 96-well plate, serve as a basis for all metric calculations (6, 7).

Take `Cn1cnc2c(F)c(Nc3ccc(Br)cc3Cl)c(C(=O)NOCCO)cc21` [AZD-6244]: in the assay with AML cells [1], the “SCF induced pAKT” value was “no inhibition”, the “SCF induced pS6” value is given as “partial inhibition” and the SCF-pERK entry is on record as “complete inhibition”.
Turning to `Nc1ccn([C@@H]2O[C@H](CO)[C@@H](O)[C@@H]2O)c(=O)n1` [AraC], the “drug induced apoptosis of myeloid cells” value in the assay with AML cells [2] was “resisted apoptosis”.
`Cn1c(=O)n(-c2ccc(C(C)(C)C#N)cc2)c2c3cc(-c4cnc5ccccc5c4)ccc3ncc21` [BEZ235]: in the assay with AML cells [1], the “SCF induced pAKT” value is “complete inhibition” and the “SCF induced pS6” value is “partial inhibition”.
Consider `C[C@@H]1CCN(C(=O)CC#N)C[C@@H]1N(C)c1ncnc2[nH]ccc12` [CP-690550], for which, in the assay with AML cells [1], the IL-3 signaling entry was “complete inhibition”, the TPO signaling entry is “partial inhibition” and the “high basal level of p-STAT5 signaling” value was “inhibited”.
With `CS(=O)(=O)N1CCN(Cc2cc3nc(-c4cccc5[nH]ncc45)nc(N4CCOCC4)c3s2)CC1` [GDC-0941], in the assay on AML cells [1], the “SCF induced pAKT” value is “partial inhibition” and the “SCF induced pS6” value is recorded as “partial inhibition”.
By inhibition is commonly meant the relative decrease from the control value, in per cent. `C[C@@H]1CCN(C(=O)CC#N)C[C@@H]1N(C)c1ncnc2[nH]ccc12` [Tofacitinib]: in the assay on PBMCs [3] (SAg plus inhibitor), the “B cell IL-6 production” value was “blocked”; the “T cell cytokine production (IL-2 and TNF by CD4+ cells)” value is listed as “blocked”. For the same molecule, the “IL-6 production by monocytes” value with PBMCs [3] (inhibitor added) is reported as “induced”. For the same molecule, in the assay on PBMCs [3] (monocytes, LPS plus inhibitor), the TNFα production entry was “blocked”. Besides, the “STAT signaling / STAT phosphorylation” value in the assay on PBMCs [4] (LPS modulation, FIG. 21) is given as “inhibited”. Also, the all measured signaling entry in the assay on PBMCs [4] (SAg modulation, FIG. 19) is recorded as “inhibited all signaling except for monocyte p-STAT6”. Moreover, in the assay on PBMCs [4] (SAg modulation, FIG. 20), the lymphocyte signaling entry is “inhibited”. Also, in [5], the “PI3K pathway activation in lymphocytes” value was “blocked”; the “STAT induction evoked by SAg modulation” value was “completely abrogated”; the “overall inhibition of SAg-evoked signaling” value is “broad and potent inhibition of the JAK/STAT pathway and down-stream signaling”; the “p-STAT5 and PI3K pathway signaling in CD4+ T cells” value was “this inhibition pattern extended to CD4+ T cells”. In assay [5], the “p-STAT5 and PI3K pathway signaling in CD4− T cells” value is “inhibited”; the “p-STAT levels in CD4− T cells” value is given as “restored p-STAT levels to the unmodulated condition”; the “phosphorylation of STAT1 and STAT5” value is reported as “weakly reduced”. For the same molecule, in the assay with monocytes in PBMC, the “IL-6 in monocytes at other time points” value was “induced IL-6 at the 2 hour and 24 hour time points”; the “frequency of monocytes expressing TNFα” value turned out to be 46%; the “monocytes expressing IL-6 (IL-6+)” value stood at 44%. Moreover, in the assay with PBMCs [6], the inhibition was 102% and 79%. Also, the “p-STAT1 and p-STAT3 induction in lymphocytes” value in the assay on PBMCs [7] (2 hours) is listed as “completed abrogated”. Moreover, the p-STAT3 in lymphocytes result with PBMCs [7] (later time points) is “partially inhibited”.
Consider `CC(C)C[C@H](NC(=O)[C@H](Cc1ccccc1)NC(=O)c1cnccn1)B(O)O` [bortezomib], for which, in the assay with AML cells [2], the “cell death and cytostasis” value was “induced considerable levels of cell death and cytostasis”.
In the case of IFN-α, the “time of peak activation of all 3 STAT proteins” value in the assay with whole blood (all cell subsets) is 10 min. The “peak response for activation of p-Stat4, p-Stat6, and p-p38” value with PBMCs [8] (majority of cell types tested) was determined as 1 h. Moreover, in the assay on PBMCs [8] (most of the cell types), the “peak response for activation of p-Stat1, p-Stat3, and p-Stat5” value came out at 15 min. The “pStat activation across immune cell subpopulations” value with PBMCs [9] (1000 IU/ml) is “at least one pStat protein was activated in response to IFNα in all of the immune cell subpopulations”.
IL-6: cytokine used as modulator: in the assay on whole blood (CD4+ T cells and monocytes), the “time of peak p-STAT1 and p-STAT5” value lay in the range of 10 to 15 min; the “time of peak p-STAT3 levels” value worked out at 3 min.

B1: IFNγ: cytokine used as modulator (protein, UniProt P01579 24-161, looked up)
Interferon gamma: QDPYVKEAENLKKYFNAGHSDVADNGTLFLGILKNWKEESDRKIMQSQIVSFYFKLFKNFKDDQSIQKSVETIKEDMNVKFFNSNKKKRDDFEKLTNYSVTDLNVQRKAIHELIQVMAELSPAAKTGKRKRSQMLFRG
As to B1, the “pStat1 level by cell type” value in the assay on PBMCs [9] (250 ng/ml) was “produced the highest level of pStat1 in monocytes, lower levels in B cells, and a much weaker pStat1 response in T cells”.

B2: IL-27: cytokine used as modulator (protein, UniProt Q8NEV9 29-243; Q14213 21-229, looked up)
Interleukin-27 subunit alpha: FPRPPGRPQLSLQELRREFTVSLHLARKLLSEVRGQAHRFAESHLPGVNLYLLPLGEQLPDVSLTFQAWRRLSDPERLCFISTTLQPFHALLGGLGTQGRWTNMERMQLWAMRLDLRDLQRHLRFQVLAAGFNLPEEEEEEEEEEEEERKGLLPGALGSALQGPAQVSWPQLLSTYRLLHSLELVLSRAVRELLLLSKAGHSVWPLGFPTLSPQP
Interleukin-27 subunit beta: RKGPPAALTLPRVQCRASRYPIAVDCSWTLPPAPNSTSPVSFIATYRLGMAARGHSWPCLQQTPTSTSCTITDVQLFSMAPYVLNVTAVHPWGSSSSFVPFITEHIIKPDPPEGVRLSPLAERQLQVQWEPPGSWPFPEIFSLKYWIRYKRQGAARFHRVGPIEATSFILRAVRPRARYYVQVAAQDLTDYGELSDWSLPATATMSLGK
Regarding B2, the “time of peak activation of p-STAT1 and p-STAT3” value in the assay on whole blood (T cell subsets, B cells, and monocytes) worked out at 30 min.
